We go through two molecules from US7727988B2, “Azabicyclo[3.1.0]hex-3-yl}alkyl)pyrimidinedione” (Glaxo Group Limited, priority 2006, dated 2010).

For this assay, the target named is T1, dopamine D3 receptor (Homo sapiens, UniProt P35462).
T1 construct: host or cells: Chinese Hamster Ovary (CHO) cells, membranes
Nature of the assay: GTPS scintillation proximity assay (GTPS-SPA), CHO_D3 membranes, antagonist format. Type of assay: biochemical. As to the method:
Functional potency of compounds of this invention can be measured by the following GTPS scintillation proximity assay (GTPS-SPA). Cells used in the study are Chinese Hamster Ovary (CHO) Cells. • Cell Line • CHO_D2 • CHO_D3 • Dopamine CHO D3 (Biocat no 1060) transduced with bacmam G0 G-protein (Biocat no 97886)
All steps are performed at 4° C. Cell membranes are prepared as follows. Cell pellets are resuspended in 10 volumes of 50 mM HEPES, 1 mM EDTA pH 7.4, using KOH. Cells are homogenised within a glass waring blender for 2 bursts of 15 secs in 200 mls of buffer (50 mM HEPES, 1 mM leupeptin, 25 μg/ml bacitracin, 1 mM EDTA, 1 mM PMSF, 2 μM Pepstatin A). (the latter 2 reagents added as fresh ×100 and ×500 stocks respectively in ethanol). The blender is plunged into ice for 5 mins after the first burst and 10-40 mins after the final burst to allow foam to dissipate. The material is then spun at 500 g for 20 mins and the supernatant spun for 36 mins at 48.000 g. The pellet is resuspended in the same buffer as above but without PMSF and Pepstatin A. The material is then forced through a 0.6 mm needle, made up to the required volume, (usually ×4 the volume of the original cell pellet), aliquoted and stored frozen at −80° C.
The final top concentration of test drug is 3 μM in the assay and 11 points serial dilution curves 1:4 in 100% DMSO are carried out using a Biomek FX. The test drug at 1% (0.5 ul) total assay volume (TAV) is added to a solid, white Greiner polypropylene 384-well assay plate. 50% TAV (25 μl) of precoupled (for 60 mins at RT) membranes, 5 μg/well, and Wheatgerm Agglutinin Polystyrene Scintillation Proximity Assay beads (RPNQ0260, Amersham), 0.25 mg/well, in 20 mM HEPES (pH 7.4, 100 mM NaCl, 10 mM MgCl2), 60 μg/mL saponin and 30 uM GDP is added. The third addition is a 20% TAV (10 ul) addition of either buffer, (agonist format) or EC80 final assay concentration of agonist, Quinelorane, prepared in assay buffer (antagonist format). The assay is started by the addition of 29% TAV (15 ul) of GTP[35S] 0.38 nM final (37 MBq/mL, 1160 Ci/mmol, Amersham). After all additions assay plates are spun down for 1 min at 1,000 rpm. The final assay cocktail ([…]) is incubated at room temperature to equilibrate for 3-6 hours before reading on a ViewLux™ (613/55 filter) luminescence imager 5 min/plate.
The effect of the test drug over the basal generates fpKi values of test drug are calculated from the IC50 generated by “antagonist format” experiment, using Cheng & Prusoff equation: fKi=IC50/1+([A]/EC50) where: [A] is the concentration of the agonist Quinelorane in the assay and EC50 is the Quinelorane EC50 value obtained in the same experiment. fpKi is defined as −logfKi. • pKi results are only estimated to be accurate to about 0.3-0.5.

T1 sequence (P35462 whole entry, species assumed): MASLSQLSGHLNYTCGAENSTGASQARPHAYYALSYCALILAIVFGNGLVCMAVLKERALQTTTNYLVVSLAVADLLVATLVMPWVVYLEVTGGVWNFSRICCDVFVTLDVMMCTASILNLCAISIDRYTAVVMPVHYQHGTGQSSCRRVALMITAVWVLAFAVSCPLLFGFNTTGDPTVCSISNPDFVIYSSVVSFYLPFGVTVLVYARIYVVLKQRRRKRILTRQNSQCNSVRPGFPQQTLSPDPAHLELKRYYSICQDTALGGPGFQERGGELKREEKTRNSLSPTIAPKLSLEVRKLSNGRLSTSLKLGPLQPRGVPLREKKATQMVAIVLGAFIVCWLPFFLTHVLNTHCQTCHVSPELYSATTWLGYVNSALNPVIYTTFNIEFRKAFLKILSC

Regarding `Cl.O=c1[nH]c(=O)n(CCCN2C[C@@H]3C[C@]3(c3ccc(C(F)(F)F)cc3)C2)cc1-c1cccs1` [Example E8, 5-(2-thienyl)-1-(3-{(1S,5R)-1-[4-(trifluoromethyl)phenyl]-3-azabicyclo[3.1.0]hex-3-yl}propyl)-2,4(1H,3H)-pyrimidinedione hydrochloride], the “Selectivity for D3 over D2 receptors” value was determined as 100 fold.

For `Cc1ccsc1-c1cn(CCCCN2C[C@@H]3C[C@]3(c3ccc(C(F)(F)F)cc3)C2)c(=O)[nH]c1=O.Cl` [Example E16, 5-(3-methyl-2-thienyl)-1-(4-{(1S,5R)-1-[4-(trifluoromethyl)phenyl]-3-azabicyclo[3.1.0]hex-3-yl}butyl)-2,4(1H,3H)-pyrimidinedione hydrochloride], the “Selectivity for D3 over D2 receptors” value was determined as 100 fold.
